According to PubChem BioAssay AID256 (DTP/NCI, 2004):
Where “and” joins values, the source holds several entries; their conditions need not be identical. Identical values can stand only once. Inconclusive results and toxic doses are left out. How the source made its calls: active means survival T/C of 150% or more; inactive means T/C below 125% in these data.

Tested on: CD2F1 mice, L1210 leukemia ip, survival T/C
Experiment: NCI In Vivo Anticancer Drug Screen. Data for tumor model L1210 Leukemia (intraperitoneal) in CD2F1 (CDF1) mice
Settings: endpoint: mean survival time, higher = longer survival
Outline: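 Activity against a transplanted murine tumor was judged by comparing the compound group with a vehicle group. The outcome in the treated animals was divided by that in the controls.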

[1] = dose: 100.0 mg/kg/injection, schedule: Q01DX001 (ip), vehicle: saline with Tween-80
[2] = dose: 200.0 mg/kg/injection, schedule: Q01DX001 (ip), vehicle: saline with Tween-80
[3] = dose: 400.0 mg/kg/injection, schedule: Q01DX001 (ip), vehicle: saline with Tween-80
[4] = dose: 400.0 mg/kg/injection, schedule: Q01DX009 (ip), vehicle: saline with Tween-80
[5] = dose: 100.0 mg/kg/injection, schedule: Q04DX003 (ip), vehicle: saline with Tween-80
[6] = dose: 200.0 mg/kg/injection, schedule: Q04DX003 (ip), vehicle: saline with Tween-80
[7] = dose: 12.5 mg/kg/injection, schedule: Q01DX009 (ip), vehicle: saline with Tween-80
[8] = dose: 25.0 mg/kg/injection, schedule: Q01DX009 (ip), vehicle: saline with Tween-80
[9] = dose: 50.0 mg/kg/injection, schedule: Q01DX009 (ip), vehicle: saline with Tween-80
[10] = dose: 100.0 mg/kg/injection, schedule: Q01DX009 (ip), vehicle: saline sonified
[11] = dose: 100.0 mg/kg/injection, schedule: Q04DX003 (ip), vehicle: saline
[12] = dose: 200.0 mg/kg/injection, schedule: Q01DX009 (ip), vehicle: saline sonified
[13] = dose: 200.0 mg/kg/injection, schedule: Q04DX003 (ip), vehicle: saline
[14] = dose: 400.0 mg/kg/injection, schedule: Q01DX009 (ip), vehicle: saline sonified
[15] = dose: 400.0 mg/kg/injection, schedule: Q04DX003 (ip), vehicle: saline with Tween-80
[16] = dose: 100.0 mg/kg/injection, schedule: Q01DX009 (ip), vehicle: saline with Tween-80
[17] = dose: 50.0 mg/kg/injection, schedule: Q04DX003 (ip), vehicle: saline with Tween-80
[18] = dose: 200.0 mg/kg/injection, schedule: Q01DX009 (ip), vehicle: saline with Tween-80

Measured: T/C

CN=C1N[N+]2=CCCCC2S1 (configuration not stated)
inactive: dose: 25.0 mg/kg/injection, schedule: Q04DX003 (ip), vehicle: saline 94 % of control | dose: 50.0 mg/kg/injection, schedule: Q04DX003 (ip), vehicle: saline 94 % of control

O=C1NC(=NC2CCCCC2)C2(CCN(CC3COc4ccccc4O3)CC2)N1c1ccccc1 (configuration not stated)
inactive: [1] 91 % of control | [2] 95 % of control | [3] 101 % of control

COc1ccc(C2C3CN(C4CCCCC4)C(=O)C3(O)NN2C)cc1 (configuration not stated)
inactive: [1] 91 % of control | [2] 88 % of control | [3] 91 % of control

c1ccc2cc(-c3cc4ccccc4s3)ccc2c1
inactive: dose: 264.0 mg/kg/injection, schedule: Q01DX009 (ip), vehicle: saline with Tween-80 104 % of control | [4] 98 % of control

Cc1ccc(S(=O)(=O)Nc2ccccc2)c(CC(O)(c2ccccc2)c2ccccc2)c1
inactive: [5] 88 % of control | [6] 88 % of control

Nc1ncnc2c1c1c(=O)[nH]cnc1n2C1OC(CO)C(O)C1O (configuration not stated)
inactive: dose: 6.25 mg/kg/injection, schedule: Q01DX005 (ip), vehicle: Klucel (hydroxypropylcellulose) (HPC) 98 % of control | dose: 12.5 mg/kg/injection, schedule: Q01DX005 (ip), vehicle: Klucel (hydroxypropylcellulose) (HPC) 104 % of control | dose: 25.0 mg/kg/injection, schedule: Q01DX005 (ip), vehicle: Klucel (hydroxypropylcellulose) (HPC) 108 % of control | dose: 50.0 mg/kg/injection, schedule: Q01DX005 (ip), vehicle: Klucel (hydroxypropylcellulose) (HPC) 115 % of control | dose: 100.0 mg/kg/injection, schedule: Q01DX005 (ip), vehicle: Klucel (hydroxypropylcellulose) (HPC) 120 % of control

C=CCOCC(O)C[As](=O)(O)c1ccc(Cl)cc1 (configuration not stated)
inactive: dose: 6.25 mg/kg/injection, schedule: Q04DX003 (ip), vehicle: saline with Tween-80 109 % of control | dose: 12.5 mg/kg/injection, schedule: Q04DX003 (ip), vehicle: saline with Tween-80 111 % of control

Cc1cc(Cl)ccc1NC(=O)N1CCCC(C)C1 (configuration not stated)
inactive: [7] 95 % of control | [8] 102 % of control | [9] 91 % of control

O=S(=O)(O)c1ccc(-c2nnc(-c3ccccn3)nc2-c2ccc(S(=O)(=O)O)cc2)cc1
inactive: [10] 96 % of control | [11] 97 % of control | [12] 98 % of control | [13] 97 % of control | [14] 94 % of control | dose: 400.0 mg/kg/injection, schedule: Q04DX003 (ip), vehicle: saline 92 % of control

CC(N)(CC(=O)O)C(=O)O (configuration not stated)
inactive: [10] 97 % of control | [5] 92 % of control | [12] 95 % of control | [6] 97 % of control | [14] 96 % of control | [15] 91 % of control

Nc1nc(N)c2nc3c4ccccc4c4ccccc4c3nc2n1
inactive: [1] 95 % of control | [16] 93 % of control | [2] 91 % of control | [3] 97 % of control

CCOC(=O)/C(=C/c1ccc(OCc2ccccc2)cc1)P(=O)(OCC)OCC
inactive: [5] 98 % of control | [6] 96 % of control | [15] 101 % of control

CCCCN(CCCC)C1=C(Cl)C(=O)c2ccccc2C1=O
inactive: dose: 25.0 mg/kg/injection, schedule: Q04DX003 (ip), vehicle: saline with Tween-80 98 % of control | [17] 98 % of control | [5] 91 % of control

O=C1CSC(c2ccccc2)N1 (configuration not stated)
inactive: [17] 102 % of control | [5] 100 % of control | [6] 100 % of control

Nc1cc(Cl)nnc1Cl
inactive: dose: 50.0 mg/kg/injection, schedule: Q01DX009 (ip), vehicle: other 97 % of control | dose: 100.0 mg/kg/injection, schedule: Q01DX009 (ip), vehicle: other 103 % of control | [11] 98 % of control | dose: 200.0 mg/kg/injection, schedule: Q01DX009 (ip), vehicle: other 97 % of control | [13] 101 % of control

CC1(C)CC(=O)C2(C)C(C1O)C2C1C2C(O)C(C)(C)CC(=O)C21C (configuration not stated)
inactive: dose: 75.0 mg/kg/injection, schedule: Q01DX001 (ip), vehicle: other 96 % of control | dose: 150.0 mg/kg/injection, schedule: Q01DX001 (ip), vehicle: other 94 % of control | dose: 300.0 mg/kg/injection, schedule: Q01DX001 (ip), vehicle: other 91 % of control

O=C1c2ccccc2C(=O)c2c(NCCSCCO)ccc(NCCSCCO)c21
inactive: dose: 16.0 mg/kg/injection, schedule: Q01DX009 (ip), vehicle: Klucel (hydroxypropylcellulose) (HPC) 100 % of control | dose: 32.0 mg/kg/injection, schedule: Q01DX009 (ip), vehicle: Klucel (hydroxypropylcellulose) (HPC) 102 % of control | dose: 64.0 mg/kg/injection, schedule: Q01DX009 (ip), vehicle: Klucel (hydroxypropylcellulose) (HPC) 93 % of control | dose: 128.0 mg/kg/injection, schedule: Q01DX009 (ip), vehicle: Klucel (hydroxypropylcellulose) (HPC) 93 % of control | dose: 256.0 mg/kg/injection, schedule: Q01DX009 (ip), vehicle: Klucel (hydroxypropylcellulose) (HPC) 102 % of control

CCCCC(C)(O)CC (configuration not stated)
inactive: [16] 93 % of control | [5] 95 % of control | [18] 95 % of control | [6] 105 % of control | [15] 107 % of control

CCC1(CC)C(=O)C=CNC1=O
inactive: [9] 100 % of control | [16] 94 % of control | [18] 103 % of control

CC#CS(=O)(=O)C(C)(C)C
inactive: [9] 100 % of control | [16] 100 % of control | [5] 93 % of control | [18] 97 % of control | [6] 90 % of control

O=C(O)CN(CC(=O)O)CC(O)CN(CC(=O)O)CC(=O)O
inactive: dose: 100.0 mg/kg/injection, schedule: Q01DX001 (ip), vehicle: saline 98 % of control | dose: 200.0 mg/kg/injection, schedule: Q01DX001 (ip), vehicle: saline 105 % of control | dose: 400.0 mg/kg/injection, schedule: Q01DX001 (ip), vehicle: saline 93 % of control

O=C(/C=C/C(=O)OCCCl)OCCCl
inactive: [5] 104 % of control | [6] 96 % of control

c1ccc(-c2c[s+]cc(-c3ccccc3)c2)cc1
inactive: dose: 50.0 mg/kg/injection, schedule: Q01DX001 (ip), vehicle: saline with Tween-80 109 % of control | [1] 104 % of control | [2] 110 % of control

Nc1cccc2ccc(S(=O)(=O)O)cc12
inactive: [16] 101 % of control | [18] 106 % of control

CN=C1C=C/C(=N/N=c2/ccn(O)cc2C)C=C1C
inactive: dose: 25.0 mg/kg/injection, schedule: Q04DX002 (ip), vehicle: saline with Tween-80 106 % of control | dose: 50.0 mg/kg/injection, schedule: Q04DX002 (ip), vehicle: saline with Tween-80 95 % of control | dose: 100.0 mg/kg/injection, schedule: Q04DX002 (ip), vehicle: saline with Tween-80 111 % of control

CCCCCCOC(CN(C)C)C(Cl)(Cl)Cl (configuration not stated)
inactive: [7] 96 % of control and 103 % of control | [8] 96 % of control and 100 % of control | [9] 97 % of control and 100 % of control | [16] 96 % of control and 101 % of control | [18] 102 % of control and 105 % of control | [4] 105 % of control

C=CC1CC2CC(C1C)C2(C)C (configuration not stated)
inactive: [9] 96 % of control | [16] 100 % of control | [18] 104 % of control

O=C(C(c1ccccc1)C(F)(F)F)N1CCCC1 (configuration not stated)
inactive: [5] 97 % of control | [6] 100 % of control | [15] 97 % of control

c1ccc(CSC2=NCCS2)cc1
inactive: [5] 108 % of control | [6] 98 % of control | [15] 97 % of control

CCCCNC(=O)Nc1ccc(Cl)cc1
inactive: [1] 88 % of control | [2] 86 % of control | [3] 88 % of control

CN1NC(=O)C2CCCC1O2 (configuration not stated)
inactive: dose: 12.5 mg/kg/injection, schedule: Q01DX009 (ip), vehicle: saline 106 % of control | dose: 25.0 mg/kg/injection, schedule: Q01DX009 (ip), vehicle: saline 102 % of control | dose: 50.0 mg/kg/injection, schedule: Q01DX009 (ip), vehicle: saline 105 % of control | dose: 100.0 mg/kg/injection, schedule: Q01DX009 (ip), vehicle: saline 111 % of control

N=c1c2cnn(C3OC(CO)C(O)C3O)c2ncn1N (configuration not stated)
inactive: dose: 6.25 mg/kg/injection, schedule: Q01DX009 (ip), vehicle: water 103 % of control | dose: 12.5 mg/kg/injection, schedule: Q01DX009 (ip), vehicle: water 115 % of control and 112 % of control | dose: 50.0 mg/kg/injection, schedule: Q01DX009 (ip), vehicle: water 91 % of control

CC(=O)Nc1c(Cl)c(Cl)c(Cl)c2c1-c1ccc(Cl)cc1C2
inactive: [1] 95 % of control | [16] 98 % of control | [2] 101 % of control | [18] 103 % of control | [3] 100 % of control | [4] 103 % of control
